PubChem BioAssay (NCI)
Values joined by “and” are separate entries in the source; they are usually repeats but may differ in a detail not shown here. Identical values can stand only once.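 Test compounds were applied to cells in 96-well plates for 48 hours at 5 doses. GI50 = concentration required for 50% inhibition of growth. At the TGI there is no net growth.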

Columns and labels:
Assay in all cases: growth of human tumour cells (NCI), 48 h
SNB-75 CNS = system: SNB-75 CNS
SN12C renal = system: SN12C renal
HOP-62 NSCLC = system: HOP-62 NSCLC
SR leukemia = system: SR leukemia
ACHN renal = system: ACHN renal
MALME-3M melanoma = system: MALME-3M melanoma
M14 melanoma = system: M14 melanoma
SW-620 colon = system: SW-620 colon
SF-268 CNS = system: SF-268 CNS
TK-10 renal = system: TK-10 renal

Compound	GI50 (SNB-75 CNS)	TGI (SNB-75 CNS)	GI50 (SN12C renal)	TGI (SN12C renal)	GI50 (HOP-62 NSCLC)	TGI (HOP-62 NSCLC)	GI50 (SR leukemia)	GI50 (ACHN renal)	TGI (ACHN renal)	GI50 (MALME-3M melanoma)	TGI (MALME-3M melanoma)	GI50 (M14 melanoma)	TGI (M14 melanoma)	GI50 (SW-620 colon)	TGI (SW-620 colon)	GI50 (SF-268 CNS)	TGI (SF-268 CNS)	GI50 (TK-10 renal)	TGI (TK-10 renal)	TGI (SR leukemia)
O=C(NCCCCCCNC(=O)OCc1ccc2c(Cl)cc(Cl)c(O)c2n1)OCc1ccc2c(Cl)cc(Cl)c(O)c2n1	0.567 µM	2.08 µM	0.957 µM	2.25 µM	1.7 µM	4.22 µM	0.357 µM	0.353 µM	1.32 µM	1.42 µM	2.77 µM	0.893 µM	2.32 µM	0.303 µM	0.984 µM	1.33 µM	2.78 µM	1.18 µM	2.45 µM	
CNC(=O)CN1CCC(Oc2cc3c(Nc4cccc(Cl)c4F)ncnc3cc2OC)CC1	2.09 µM and 1.84 µM	10.8 µM and > 10 µM	2.96 µM and 3.42 µM	> 100 µM	7.91 µM and 3.95 µM	70.4 µM and > 10 µM	21.1 µM and 2.19 µM	< 0.0224 µM and 0.0561 µM	25.6 µM and > 10 µM	16.1 µM and > 10 µM	> 58 µM	18 µM and > 8.27 µM	34.1 µM and > 10 µM	15.6 µM and > 6.56 µM	32.9 µM and > 10 µM	8.25 µM and 4.25 µM	> 45.2 µM	0.0237 µM and 0.00744 µM	14.8 µM and > 10 µM	> 70.1 µM and 8.97 µM
CCCCCCCCCCCCCCCCCC[N+](C)(C)Cc1ccc(C[N+](C)(C)CCCCCCCCCCCCCCCCCC)cc1		26 µM		30.1 µM		34.7 µM			30.3 µM		> 100 µM		49 µM		> 100 µM		43.1 µM		28.6 µM	5.63 µM
Cc1nc2sc(C(=O)Nc3cccc(Br)c3)c(N)c2cc1C(O)c1ccccc1 (centres undefined)	0.224 µM	4.15 µM	0.894 µM	13.3 µM	1.57 µM	32.4 µM	0.301 µM	0.768 µM	14.7 µM	0.761 µM	22.3 µM	0.466 µM	29.7 µM	0.375 µM	> 38 µM	1.81 µM	20.2 µM	2.22 µM	26.7 µM	> 37.3 µM
CC[CH2][Sn]([CH2]CC)([O]C(=O)Cc1ccc(F)cc1)[O][Sn]([CH2]CC)([CH2]CC)[O]C(=O)Cc1ccc(F)cc1	0.27 µM	1.43 µM	0.262 µM	1 µM	1.25 µM	2.69 µM	0.0781 µM	0.209 µM	0.552 µM	0.102 µM	0.291 µM	0.237 µM	0.622 µM	0.0773 µM	0.22 µM	0.13 µM	0.606 µM	0.125 µM	0.393 µM	5.03 µM
Cn1c(=N)n[n+]([O-])c2ccccc21		3.56 µM and 8.45 µM		3.29 µM and 4.19 µM		4.29 µM and 4.98 µM	3.87 µM		23.5 µM and 22 µM		6.15 µM		3.7 µM and 3.76 µM		> 26.8 µM	2.67 µM and 7.11 µM	7.7 µM and 17.6 µM		70 µM and > 59.4 µM	14.7 µM and 9.32 µM
FC(F)(F)c1nc(-c2ccccc2)oc1Sc1oc(-c2ccccc2)nc1C(F)(F)F		> 100 µM		> 100 µM		> 100 µM			> 100 µM		> 100 µM		> 100 µM		> 100 µM		> 100 µM		> 100 µM	> 100 µM
COc1cnc2c(c1)C(=O)c1c-2n(CCCNC(C)C)c(=O)c2cc([N+](=O)[O-])ccc12	0.0696 µM	0.48 µM	0.0393 µM	0.438 µM	0.0853 µM	0.34 µM		0.0267 µM	0.121 µM	0.118 µM	0.356 µM	0.0347 µM	0.135 µM	0.0393 µM	0.643 µM	0.0488 µM	1.42 µM	0.134 µM	0.318 µM	0.226 µM
Nc1nc(-c2ccccc2)cc(-c2ccc(Cl)cc2)c1-c1nc2ccccc2o1	12.9 µM	26.3 µM	7.56 µM	20 µM	22.4 µM	37.8 µM	3.08 µM	11.1 µM	23 µM	19.2 µM	35.3 µM	14.5 µM	35.4 µM	14.9 µM	29.3 µM	10.9 µM	27.7 µM	11.3 µM	27.1 µM	8.11 µM
COc1ccc(C2CC(=O)c3c(O)c(OC)c(OC)c(OC)c3O2)cc1O (centres undefined)	0.0358 µM	> 100 µM	1.1 µM	> 100 µM	0.377 µM	> 100 µM	0.0467 µM	0.572 µM	> 100 µM	32.8 µM	> 100 µM	0.0515 µM	> 100 µM	0.0418 µM	> 100 µM	0.407 µM	> 100 µM	> 31.4 µM	> 100 µM	> 100 µM
CCCN1C(=O)CNC(=O)c2[nH]cnc21		> 100 µM		> 100 µM		> 100 µM			> 100 µM		> 100 µM		> 100 µM		> 100 µM		> 100 µM		> 100 µM	> 100 µM
Cc1ccc(N2C(=O)C(Cl)=C(Cl)C2=O)cc1		48.5 µM		33.7 µM		> 100 µM			34.1 µM		33.7 µM		36.7 µM		34.8 µM		37.8 µM			54.2 µM
